From US20240358862A1, “Synthesis Method and Application of a Near-infrared Probe GGa-ICG specific binding to PSCA” (Guangzhou Shiyun Biotechnology Co., Ltd, priority 2022, published 2024) come the findings set out here.

The nature of series [1]: Fluorescence stability detection. The series is classed as physicochemical. The conditions noted are these: after excitation at 780 nm. Here is the method:
Stability testing was divided into two groups: 1) stability testing under excitation wavelength and 2) stability testing of GGa-ICG under visible light. Excitation wavelength of 780 nm (GGa-ICG, ssDNA-ICG, and ICG) and visible light were used to excite the fluorescence probe GGa-ICG. Fluorescence detection was performed, and the changes in fluorescence intensity were recorded using a fluorescence spectrophotometer.

For series [2], the system named is prostate cancer lesions (PC-3 xenograft). Description: In vivo imaging in PC-3 mouse xenograft model. The arrangement: species or system BALB/c nude mice. The conditions noted are these: intravenous injection, at 2, 4, and 8 hours. Here is the method:
Male BALB/c nude mice (BALB/c-nude) were purchased from Beijing SLAC Laboratory Animal Co., Ltd. Five-week-old nude mice were subcutaneously injected with 5×10^6 PC-3 cells on the back. The tumor was allowed to grow for 15 to 20 days until it reached a diameter of 0.5-1.5 cm. The BALB/c nude mice bearing tumors were anesthetized with sedatives and anesthetics. Once the mice were immobilized, a designated dose (0.1 mg, 0.5 mg, 1 mg, 2 mg per injection) of GGa-ICG or ssDNA-ICG was injected through the tail vein. At certain time points, fluorescent images of live mice were collected using the IVIS Lumina II in vivo imaging system. For ex vivo fluorescent experiments, tumor-bearing mice that were intravenously injected with GGa-ICG or ssDNA-ICG were euthanized by cervical dislocation 1 hour after injection under anesthesia. After dissection, organs including brain, liver, kidney, spleen, lung, heart, and tumor tissue were imaged using the IVIS Lumina II in vivo imaging system as described above.

As for `CC1(C)C(/C=C/C=C/C=C/C=C2\N(CCCCS(=O)(=O)O)c3ccc4ccccc4c3C2(C)C)=[N+](CCCCS(=O)(=O)[O-])c2ccc3ccccc3c21` [ICG, indocyanine green, reference compound], the “time after which fluorescence was extinguished” value in series [1] is 1 h. In addition, the “binding to prostate cancer lesions in vivo” value in series [2] was “specifically bound”.
